Data as given in patent publication US20230085307A1, “PYRIDAZINONE COMPOUND AND HERBICIDE” (NISSAN CHEMICAL CORPORATION, priority 2019, published 2023).

What was measured:
redroot pigweed [1] = test: Test Example 4: herbicidal effect by soil treatment (Table 19, symbol N); type: in vivo, redroot pigweed (Amaranthus retroflexus); settings: amount of applied herbicide 320 g/ha
Procedure, shortened: (§1)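 Seeds were sown in sterilized diluvial soil and covered with about 1.5 cm of soil. An emulsion formulation diluted with water to a predetermined herbicide amount was sprayed evenly onto the soil surface. Plants grew in a greenhouse at 25° C. to 30° C., and the effect was scored three weeks after application using criteria from an earlier test.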

persian speedwell [2] = test: Test Example 4: herbicidal effect by soil treatment (Table 19, symbol R); type: in vivo, Persian speedwell (Veronica persica); settings: amount of applied herbicide 320 g/ha
Procedure, shortened: as §1

Italian ryegrass [3] = test: Test Example 5: herbicidal effect by foliage application, plastic box (Table 20, symbol K); type: in vivo, Italian ryegrass (Lolium multiflorum); settings: 320 g/ha, foliage application after 14-day growth, evaluated three weeks after application
Procedure, shortened: (§2)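 Plants sown in sterilized diluvial soil and grown 14 days in a greenhouse at 25° C to 30° C, then sprayed on the foliage with the compound's emulsion diluted in water to a predetermined herbicide amount. Injury to weeds and crops scored three weeks after application on a visual rating scale.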

wild oat [4] = test: Test Example 4: herbicidal effect by soil treatment (Table 19, symbol I); type: in vivo, wild oat (Avena fatua); settings: amount of applied herbicide 320 g/ha
Procedure, shortened: as §1

velvetleaf [5] = test: Test Example 5: herbicidal effect by foliage application, plastic box (Table 20, symbol M); type: in vivo, velvetleaf (Abutilon theophrasti); settings: 320 g/ha, foliage application after 14-day growth, evaluated three weeks after application
Procedure, shortened: as §2

southern crabgrass [6] = test: Test Example 5: herbicidal effect by foliage application, plastic box (Table 20, symbol F); type: in vivo, southern crabgrass (Digitaria ciliaris); settings: 320 g/ha, foliage application after 14-day growth, evaluated three weeks after application
Procedure, shortened: as §2

Japanese bulrush = test: Test Example 1: herbicidal activity, application before weed generation under submerged conditions (Table 16, symbol B); type: in vivo, Japanese bulrush (Schoenoplectus juncoides); settings: amount of applied herbicide 320 g/ha
Procedure, shortened: (§3)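 Emulsion formulation, water-diluted to set dose, was put onto the flooded surface (4 cm depth, alluvial soil) the same day weeds were sown and 2.5-leaf rice transplanted. After 3 weeks at 25-30 °C under glass, each species was rated 0 (≤5% kill) to 5 (≥90% kill).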

barnyard grass [7] = test: Test Example 5: herbicidal effect by foliage application, plastic box (Table 20, symbol H); type: in vivo, barnyard grass (Echinochloa crus-galli); settings: 320 g/ha, foliage application after 14-day growth, evaluated three weeks after application
Procedure, shortened: as §2

green foxtail [8] = test: Test Example 5: herbicidal effect by foliage application, plastic box (Table 20, symbol G); type: in vivo, green foxtail (Setaria viridis); settings: 320 g/ha, foliage application after 14-day growth, evaluated three weeks after application
Procedure, shortened: as §2

windgrass [9] = test: Test Example 5: herbicidal effect by foliage application, plastic box (Table 20, symbol L); type: in vivo, windgrass (Apera spica-venti); settings: 320 g/ha, foliage application after 14-day growth, evaluated three weeks after application
Procedure, shortened: as §2

persian speedwell [10] = test: Test Example 5: herbicidal effect by foliage application, plastic box (Table 20, symbol R); type: in vivo, Persian speedwell (Veronica persica); settings: 320 g/ha, foliage application after 14-day growth, evaluated three weeks after application
Procedure, shortened: as §2

lambsquarters [11] = test: Test Example 4: herbicidal effect by soil treatment (Table 19, symbol O); type: in vivo, lambsquarters (Chenopodium album); settings: amount of applied herbicide 320 g/ha
Procedure, shortened: as §1

southern crabgrass [12] = test: Test Example 4: herbicidal effect by soil treatment (Table 19, symbol F); type: in vivo, southern crabgrass (Digitaria ciliaris); settings: amount of applied herbicide 320 g/ha
Procedure, shortened: as §1

windgrass [13] = test: Test Example 4: herbicidal effect by soil treatment (Table 19, symbol L); type: in vivo, windgrass (Apera spica-venti); settings: amount of applied herbicide 320 g/ha
Procedure, shortened: as §1

wild oat [14] = test: Test Example 5: herbicidal effect by foliage application, plastic box (Table 20, symbol I); type: in vivo, wild oat (Avena fatua); settings: 320 g/ha, foliage application after 14-day growth, evaluated three weeks after application
Procedure, shortened: as §2

green foxtail [15] = test: Test Example 4: herbicidal effect by soil treatment (Table 19, symbol G); type: in vivo, green foxtail (Setaria viridis); settings: amount of applied herbicide 320 g/ha
Procedure, shortened: as §1

blackgrass [16] = test: Test Example 4: herbicidal effect by soil treatment (Table 19, symbol J); type: in vivo, blackgrass (Alopecurus myosuroides); settings: amount of applied herbicide 320 g/ha
Procedure, shortened: as §1

lambsquarters [17] = test: Test Example 5: herbicidal effect by foliage application, plastic box (Table 20, symbol O); type: in vivo, lambsquarters (Chenopodium album); settings: 320 g/ha, foliage application after 14-day growth, evaluated three weeks after application
Procedure, shortened: as §2

Italian ryegrass [18] = test: Test Example 4: herbicidal effect by soil treatment (Table 19, symbol K); type: in vivo, Italian ryegrass (Lolium multiflorum); settings: amount of applied herbicide 320 g/ha
Procedure, shortened: as §1

rice flat sedge = test: Test Example 3: herbicidal effect by foliage application, Wagner pot (Table 18, symbol E); type: in vivo, rice flat sedge (Cyperus iria); settings: 320 g/ha
Procedure, shortened: (§4)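 Plants were sown in alluvial soil held under 0.1–0.5 cm standing water and grown 14 days in a greenhouse at 25–30 °C. An emulsifiable formulation, water-diluted to the set dose, was then sprayed onto the foliage, and effects were scored three weeks later using previously defined criteria.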

oval-leafed pondweed = test: Test Example 1: herbicidal activity, application before weed generation under submerged conditions (Table 16, symbol C); type: in vivo, oval-leafed pondweed (Monochoria vaginalis); settings: amount of applied herbicide 320 g/ha
Procedure, shortened: as §3

velvetleaf [19] = test: Test Example 4: herbicidal effect by soil treatment (Table 19, symbol M); type: in vivo, velvetleaf (Abutilon theophrasti); settings: amount of applied herbicide 320 g/ha
Procedure, shortened: as §1

late watergrass = test: Test Example 1: herbicidal activity, application before weed generation under submerged conditions (Table 16, symbol A); type: in vivo, late watergrass (Echinochloa oryzicola); settings: amount of applied herbicide 320 g/ha
Procedure, shortened: as §3

blackgrass [20] = test: Test Example 5: herbicidal effect by foliage application, plastic box (Table 20, symbol J); type: in vivo, blackgrass (Alopecurus myosuroides); settings: 320 g/ha, foliage application after 14-day growth, evaluated three weeks after application
Procedure, shortened: as §2

chickweed [21] = test: Test Example 5: herbicidal effect by foliage application, plastic box (Table 20, symbol P); type: in vivo, common chickweed (Stellaria media); settings: 320 g/ha, foliage application after 14-day growth, evaluated three weeks after application
Procedure, shortened: as §2

barnyard grass [22] = test: Test Example 4: herbicidal effect by soil treatment (Table 19, symbol H); type: in vivo, barnyard grass (Echinochloa crus-galli); settings: amount of applied herbicide 320 g/ha
Procedure, shortened: as §1

redroot pigweed [23] = test: Test Example 5: herbicidal effect by foliage application, plastic box (Table 20, symbol N); type: in vivo, redroot pigweed (Amaranthus retroflexus); settings: 320 g/ha, foliage application after 14-day growth, evaluated three weeks after application
Procedure, shortened: as §2

Chinese sprangletop = test: Test Example 3: herbicidal effect by foliage application, Wagner pot (Table 18, symbol D); type: in vivo, chinese sprangletop (Leptochloa chinensis); settings: 320 g/ha
Procedure, shortened: as §4

barnyard grass [24] = test: Test Example 3: herbicidal effect by foliage application, Wagner pot (Table 18, symbol H); type: in vivo, barnyard grass (Echinochloa crus-galli); settings: 320 g/ha
Procedure, shortened: as §4

chickweed [25] = test: Test Example 4: herbicidal effect by soil treatment (Table 19, symbol P); type: in vivo, common chickweed (Stellaria media); settings: amount of applied herbicide 320 g/ha
Procedure, shortened: as §1

| Structure (SMILES) | Herbicidal effect by soil treatment, N: redroot pigweed (redroot pigweed [1]) | Herbicidal effect by soil treatment, R: persian speedwell (persian speedwell [2]) | herbicidal effect on K: Italian ryegrass (evaluation grade 0-5) (Italian ryegrass [3]) | Herbicidal effect by soil treatment, I: wild oat (wild oat [4]) | herbicidal effect on M: velvetleaf (evaluation grade 0-5) (velvetleaf [5]) | herbicidal effect on F: southern crabgrass (evaluation grade 0-5) (southern crabgrass [6]) | Herbicidal effect, B: Japanese bulrush (Japanese bulrush) | herbicidal effect on H: barnyard grass (evaluation grade 0-5) (barnyard grass [7]) | herbicidal effect on G: green foxtail (evaluation grade 0-5) (green foxtail [8]) | herbicidal effect on L: windgrass (evaluation grade 0-5) (windgrass [9]) | herbicidal effect on R: persian speedwell (evaluation grade 0-5) (persian speedwell [10]) | Herbicidal effect by soil treatment, O: lambsquarters (lambsquarters [11]) | Herbicidal effect by soil treatment, F: southern crabgrass (southern crabgrass [12]) | Herbicidal effect by soil treatment, L: windgrass (windgrass [13]) | herbicidal effect on I: wild oat (evaluation grade 0-5) (wild oat [14]) | Herbicidal effect by soil treatment, G: green foxtail (green foxtail [15]) | Herbicidal effect by soil treatment, J: blackgrass (blackgrass [16]) | herbicidal effect on O: lambsquarters (evaluation grade 0-5) (lambsquarters [17]) | Herbicidal effect by soil treatment, K: Italian ryegrass (Italian ryegrass [18]) | herbicidal effect on rice flat sedge (E) (rice flat sedge) | further results |
| --- | --- | --- | --- | --- | --- | --- | --- | --- | --- | --- | --- | --- | --- | --- | --- | --- | --- | --- | --- | --- | --- |
| CCOc1ccccc1-c1sc2c(F)cccc2c1-c1c(O)c(C)nn(C)c1=O [4-007] | 0 (Herbicidal rate of 5% or less (almost no effect)) | 3 (Herbicidal rate of 40% or more and less than 70%) | 4 (Herbicidal rate of 70% or more and less than 90%) | 0 (Herbicidal rate of 5% or less (almost no effect)) | 3 (Herbicidal rate of 40% or more and less than 70%) | 3 (Herbicidal rate of 40% or more and less than 70%) | 0 (Herbicidal rate of 5% or less (almost no effect)) | 4 (Herbicidal rate of 70% or more and less than 90%) | 5 (Herbicidal rate of 90% or more (almost completely withered)) | 2 (Herbicidal rate of 20% or more and less than 40%) | 5 (Herbicidal rate of 90% or more (almost completely withered)) | 0 (Herbicidal rate of 5% or less (almost no effect)) | 0 (Herbicidal rate of 5% or less (almost no effect)) | 0 (Herbicidal rate of 5% or less (almost no effect)) | 2 (Herbicidal rate of 20% or more and less than 40%) | 0 (Herbicidal rate of 5% or less (almost no effect)) | 3 (Herbicidal rate of 40% or more and less than 70%) | 1 (Herbicidal rate of 5% or more and less than 20%) | 0 (Herbicidal rate of 5% or less (almost no effect)) | 5 (Herbicidal rate of 90% or more (almost completely withered)) | Herbicidal effect, C: oval-leafed pondweed (oval-leafed pondweed): 0 (Herbicidal rate of 5% or less (almost no effect)); Herbicidal effect by soil treatment, M: velvetleaf (velvetleaf [19]): 0 (Herbicidal rate of 5% or less (almost no effect)); Herbicidal effect, A: late watergrass (late watergrass): 3 (Herbicidal rate of 40% or more and less than 70%); herbicidal effect on J: blackgrass (evaluation grade 0-5) (blackgrass [20]): 4 (Herbicidal rate of 70% or more and less than 90%); herbicidal effect on P: chickweed (evaluation grade 0-5) (chickweed [21]): 5 (Herbicidal rate of 90% or more (almost completely withered)); Herbicidal effect by soil treatment, H: barnyard grass (barnyard grass [22]): 0 (Herbicidal rate of 5% or less (almost no effect)); herbicidal effect on N: redroot pigweed (evaluation grade 0-5) (redroot pigweed [23]): 3 (Herbicidal rate of 40% or more and less than 70%); herbicidal effect on Chinese sprangletop (D) (Chinese sprangletop): 3 (Herbicidal rate of 40% or more and less than 70%); herbicidal effect on barnyard grass (H) (barnyard grass [24]): 5 (Herbicidal rate of 90% or more (almost completely withered)); Herbicidal effect by soil treatment, P: chickweed (chickweed [25]): 3 (Herbicidal rate of 40% or more and less than 70%) |
| CCCOc1ccc(-c2sc3c(F)cccc3c2-c2c(O)c(C)nn(C)c2=O)cc1 [4-009] | 5 (Herbicidal rate of 90% or more (almost completely withered)) | 4 (Herbicidal rate of 70% or more and less than 90%) | 4 (Herbicidal rate of 70% or more and less than 90%) | 0 (Herbicidal rate of 5% or less (almost no effect)) | 3 (Herbicidal rate of 40% or more and less than 70%) | 3 (Herbicidal rate of 40% or more and less than 70%) | 1 (Herbicidal rate of 5% or more and less than 20%) | 5 (Herbicidal rate of 90% or more (almost completely withered)) | 2 (Herbicidal rate of 20% or more and less than 40%) | 4 (Herbicidal rate of 70% or more and less than 90%) | 5 (Herbicidal rate of 90% or more (almost completely withered)) | 3 (Herbicidal rate of 40% or more and less than 70%) | 0 (Herbicidal rate of 5% or less (almost no effect)) | 0 (Herbicidal rate of 5% or less (almost no effect)) | 0 (Herbicidal rate of 5% or less (almost no effect)) | 0 (Herbicidal rate of 5% or less (almost no effect)) | 0 (Herbicidal rate of 5% or less (almost no effect)) | 4 (Herbicidal rate of 70% or more and less than 90%) | 0 (Herbicidal rate of 5% or less (almost no effect)) | 5 (Herbicidal rate of 90% or more (almost completely withered)) | Herbicidal effect, C: oval-leafed pondweed (oval-leafed pondweed): 0 (Herbicidal rate of 5% or less (almost no effect)); Herbicidal effect by soil treatment, M: velvetleaf (velvetleaf [19]): 0 (Herbicidal rate of 5% or less (almost no effect)); Herbicidal effect, A: late watergrass (late watergrass): 2 (Herbicidal rate of 20% or more and less than 40%); herbicidal effect on J: blackgrass (evaluation grade 0-5) (blackgrass [20]): 4 (Herbicidal rate of 70% or more and less than 90%); herbicidal effect on P: chickweed (evaluation grade 0-5) (chickweed [21]): 5 (Herbicidal rate of 90% or more (almost completely withered)); Herbicidal effect by soil treatment, H: barnyard grass (barnyard grass [22]): 0 (Herbicidal rate of 5% or less (almost no effect)); herbicidal effect on N: redroot pigweed (evaluation grade 0-5) (redroot pigweed [23]): 5 (Herbicidal rate of 90% or more (almost completely withered)); herbicidal effect on Chinese sprangletop (D) (Chinese sprangletop): 3 (Herbicidal rate of 40% or more and less than 70%); herbicidal effect on barnyard grass (H) (barnyard grass [24]): 5 (Herbicidal rate of 90% or more (almost completely withered)); Herbicidal effect by soil treatment, P: chickweed (chickweed [25]): 4 (Herbicidal rate of 70% or more and less than 90%) |
